The text below walks through data of patent US20200270225A1, “Chiral Diacylhydrazine Ligands for Modulating the Expression of Exogenous Genes via an Ecdysone Receptor Complex” (Intrexon Corporation, priority 2007, published 2020).

The test system of one data set is MDR1-MDCK cells. As to the kind of experiment: Blood brain barrier penetration potential using MDR1-MDCK cells. The class given is in vitro ADME. The protocol: The test compounds were prepared as a 5 μM solution in HBSSg with a maximum DMSO concentration ≤1%. Confluent monolayers of MDR1-MDCK cells, 7 to 11 days old were prepared. The receiver well was prepared with 1% BSA in modified Hanks buffer (HBSSg), and the apical and basolateral sides were maintained at pH 7.4±0.2. Two monolayers were dosed in each direction (N=2): the apical side was dosed for (A→B) assessment and the basolateral side was dosed for (B→A) assessment. Test compound concentration was measured for both apical and basolateral sides at a time point of 120 minutes using a generic LC/MS/MS method with a minimum 4 point calibration curve. The reported values in FIG. 14: the percent recovery of the test compound from the Transwell® wells containing MDR1-MDCK cell monolayers; apparent permeability (Papp) in both directions; efflux ratio (Papp B→A)/(Papp A→B); and the blood-brain barrier penetration potential classification. […] Also, R enantiomer experiences less efflux. […] Higher blood-brain barrier penetration is a significant advantage for medical indications where central nervous system (CNS) penetration is required.

The nature of data set [1]: Solubility and appearance of 20 mg/mL preparations in Labrasol. The data set is classed as physicochemical. Particulars: sonicated at 25-28° C. On the procedure:
These Labrasol dosing preparations utilized micronized R enantiomer, but non-micronized racemate. To address the possibility that the non-micronized racemate specimen might bias its dissolution rate in Labrasol, an independent experiment was performed. In this experiment, the solubility and appearance of 20 mg/mL preparations of micronized and non-micronized racemate were examined. Micronized racemate (lot REH-28-9-1/PYAP-2-8-2-2M), non-micronized racemate (lot # PYAP-2-8-2-2), and micronized R enantiomer (lot # REH-28-4-2) were each suspended in Labrasol, swirled by hand, and then sonicated in a Branson 2100 table top sonicator at 25-28° C. for 3×5 min intervals and a 1×10 min interval, interspersed with swirling by hand. […] By visual inspection, the quantity of undissolved material in micronized and non-micronized racemate samples was substantially the same. […] Some larger crystal fragments remained in the non-micronized sample. Since both micronized and non-micronized samples of racemate result in similar amounts of undissovled material, it appears that the major difference between R enantiomer and racemate Labrasol preparations is the intrinsic solubility rather than the starting particle size of the solute.

For data set [2], the system named is RheoSwitch® Therapeutic System (RTS) gene expression. Briefly: In vivo induction of RTS SEAP reporter in electroporated mice. Particulars: intraperitoneal injection 26 nmol/mouse; monitored seventeen days. Also noted: species or system C57BL6 mice. The text has this: The wild-type D, E, and F domains from spruce budworm Choristoneura fumiferana EcR (“CfEcR-DEF”; SEQ ID NO: 1) were mutated [V107 (gtt)→1107 (att) and Y127 (tac)→E127 (gag)] and fused to a GAL4 DNA binding domain (“Gal4DBD1-147”; SEQ ID NO: 2). Helices 1 through 8 of the EF domains from Homo sapiens RXRPβ (“HsRXRβ-EF”; nucleotides 1-465 of SEQ ID NO: 4) and helices 9 through 12 of the EF domains of Locusta migratoria Ultraspiracle Protein (“LmUSP-EF”; nucleotides 403-630 of SEQ ID NO: 5) were fused to the transactivation domain from VP16 (“VP16AD”; SEQ ID NO: 6), which regulates a reporter gene human secreted alkaline phosphatase (“SEAP”, SEQ ID NO: 12) that was placed under the control of a 6xGAL4 response element (SEQ ID NO: 13) and a transthyretin promoter (SEQ ID NO: 14). Each element of the gene switch was on a separate plasmid. Receptor expression was under the control of a CMV promoter (SEQ ID NO: 15). Induction was evaluated by the amount of reporter protein expressed in the presence of ligand.
SEAP expression in serum of mice was evaluated after electroporation of the gene switch into mouse quadriceps. Mice were anesthetized with 2 μL/g of a mixture of ketamine (100 mg/mL) and xylazine (20 mg/mL). Animals were then shaved, DNA vectors injected into the muscle in a volume of 2×50 μL polyglutamic acid (12 mg/mL water), electrode conductivity gel applied, and an electrode caliber (1 cm×1 cm; model 384) was placed on hind leg. The muscle was electroporated with 200 V/cm, 8 times, for 20 msec/pulse, at 1 sec time intervals. The transverse electrical field direction was reversed after the animals received half of the pulses. Electroporation was performed with an ECM 830 electroporator from BTX Molecular Delivery Systems.
[…] In other experiments the concentration of ligand was decreased to 26 nmol/50 μL of DMSO/mouse. […]
Mouse serum was obtained by centrifugation of blood acquired by retroorbital bleeding with a small glass capillary tube. SEAP quantification was determined using a Clontech Great Escape chemiluminescence kit and by comparison with the Clontech SEAP standard. […]

Structures are written as SMILES.

Turning to `CCC[C@@H](N(NC(=O)c1cccc(OC)c1CC)C(=O)c1cc(C)cc(C)c1)C(C)(C)C` [Example 1, (R)-3,5-Dimethyl-benzoic Acid N-(1-tert-butyl-butyl)-N′-(2-ethyl-3-methoxy-benzoyl)-hydrazide], in the data set on MDR1-MDCK cells, the “blood-brain barrier penetration potential classification” value is “moderately penetrating through the blood-brain barrier” and the “efflux, compared” value is reported as “less efflux”. Besides, the “apparent permeability (Papp), compared” value in the data set on MDR1-MDCK cells (A→B and B→A, 5 μM, 120 minutes) was “more permeable than racemate in both A→B and B→A directions”. Further, in data set [1], the “solubility and appearance in Labrasol” value was “readily dissolved”. For the same compound, in data set [2], the “RTS gene reporter (SEAP) expression in mouse serum” value is reported as “induces substantial RTS gene reporter expression”.
Regarding `CCCC(N(NC(=O)c1cccc(OC)c1CC)C(=O)c1cc(C)cc(C)c1)C(C)(C)C` (racemic) [rac-1, rac-2-ethyl-3-methoxy-benzoic acid N′-(1-tert-butyl-butyl)-N′-(3,5-dimethyl-benzoyl)-hydrazide], the “blood-brain barrier penetration potential classification” value in the data set on MDR1-MDCK cells is “low”. The “solubility and appearance in Labrasol” value in data set [1] is “remained cloudy with suspended fine particles”. The “RTS gene reporter (SEAP) expression in mouse serum” value in data set [2] was “induces modest RTS gene reporter expression”.
